IC50 data for 1 molecule are collected here from BindingDB's records for doi:10.1021/jm070574f (University of Copenhagen, 2007).

This test deals with Neuronal acetylcholine receptor subunit alpha-7 (Homo sapiens, UniProt P36544). The experiment in a line: Antagonist activity at human alpha-7 nAChR in tsA201 cells coexpressed with Ric3 by FMP assay.

Usually IC50 stands for the concentration that gives 50% inhibition. Read a low IC50 as inhibition by little substance.

Sequence of Neuronal acetylcholine receptor subunit alpha-7 (P36544 whole entry): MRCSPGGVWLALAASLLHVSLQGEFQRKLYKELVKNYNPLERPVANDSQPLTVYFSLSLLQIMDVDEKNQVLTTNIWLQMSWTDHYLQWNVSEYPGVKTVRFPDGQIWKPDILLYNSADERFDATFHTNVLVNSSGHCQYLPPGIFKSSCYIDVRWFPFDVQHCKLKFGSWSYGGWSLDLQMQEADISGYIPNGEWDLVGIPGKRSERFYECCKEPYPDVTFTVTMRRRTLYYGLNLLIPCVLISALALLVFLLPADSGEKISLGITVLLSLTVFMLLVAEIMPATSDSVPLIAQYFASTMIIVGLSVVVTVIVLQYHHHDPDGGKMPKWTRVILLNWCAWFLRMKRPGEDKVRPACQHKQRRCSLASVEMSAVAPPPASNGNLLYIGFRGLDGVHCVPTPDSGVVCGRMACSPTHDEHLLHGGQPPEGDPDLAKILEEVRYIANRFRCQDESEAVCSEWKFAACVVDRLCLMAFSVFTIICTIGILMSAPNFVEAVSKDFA

`CCN1C[C@]2(COC(=O)c3ccccc3-n3c(O)cc(C)c3O)CC[C@H](OC)[C@]34[C@@H]5C[C@H]6[C@H](OC)[C@@H]5[C@](O)(C[C@@H]6OC)[C@@](O)([C@H]13)[C@@H](OC)[C@H]24` [METHYLLYCACONITINE] gave an IC50 of 8.3 nM.
